Data: patent US10194659B2, “Active compound combinations” (BAYER CROPSCIENCE AKTIENGESELLSCHAFT, priority 2014, dated 2019)
Several values for one entry are separate records, joined by “and”; a condition that tells them apart may be missing. Equal values may be shown once.

Assays:
Venturia inaequalis = test: In vivo preventive test on Venturia test (apples); settings: evaluated 10 days after inoculation
Experimental: (§1) To produce a suitable preparation of active compound, 1 part by weight of active compound is mixed with the stated amounts of solvent and emulsifier, and the concentrate is diluted with water to the desired concentration. To test for preventive activity, young plants are sprayed with the preparation of active compound at the stated rate of application. After the spray coating has dried on, the plants are inoculated with an aqueous conidia suspension of the causal agent of apple scab (Venturia inaequalis) and then remain for 1 day in an incubation cabinet at approximately 20° C. and a relative atmospheric humidity of 100%. The plants are then placed in a greenhouse at approximately 21° C. and a relative atmospheric humidity of approximately 90%.
The test is evaluated 10 days after the inoculation. 0% means an efficacy which corresponds to that of the untreated control, while an efficacy of 100% means that no disease is observed.

Alternaria solani = test: In vivo preventive test on Alternaria test (tomatoes); settings: evaluated 3 days after inoculation
Experimental: as §1, with “spore” for “conidia”, “Alternaria solani. The plants are” for “the causal agent of apple scab (Venturia inaequalis) and”, “placed” for “remain for 1 day”, “100%.” for “100%. The plants are then placed in a greenhouse at approximately 21° C. and a relative atmospheric humidity of approximately 90%.”
The test is evaluated 3 days after the inoculation. 0% means an efficacy which corresponds to that of the untreated control while an efficacy of 100% means that no disease is observed.

[1] = tested on: Blumeria graminis f.sp. hordei; test: In vivo preventive Blumeria test (barley); settings: evaluated 7 days after inoculation
Experimental: (§2) To produce a suitable preparation of active compound, 1 part by weight of active compound or active compound combination is mixed with the stated amounts of solvent and emulsifier, and the concentrate is diluted with water to the desired concentration. To test for preventive activity, young plants are sprayed with the preparation of active compound or active compound combination at the stated rate of application. After the spray coating has been dried, the plants are dusted with spores of Blumeria graminis f.sp. hordei. The plants are placed in the greenhouse at a temperature of approximately 18° C. and a relative atmospheric humidity of approximately 80% to promote the development of mildew pustules.
(§3) The test is evaluated 7 days after the inoculation. 0% means an efficacy which corresponds to that of the untreated control, while an efficacy of 100% means that no disease is observed.

Botrytis cinerea = test: In vivo preventive test on Botrytis test (beans); settings: lesion size evaluated 2 days after inoculation
Experimental: To produce a suitable preparation of active compound, 1 part by weight of active compound is mixed with the stated amounts of solvent and emulsifier, and the concentrate is diluted with water to the desired concentration. To test for preventive activity, young plants are sprayed with the preparation of active compound. After the spray coating has dried on, 2 small pieces of agar covered with growth of Botrytis cinerea are placed on each leaf. The inoculated plants are placed in a darkened chamber at 20° C. and a relative atmospheric humidity of 100%.
2 days after the inoculation, the size of the lesions on the leaves is evaluated. 0% means an efficacy which corresponds to that of the untreated control, while an efficacy of 100% means that no disease is observed.

Phakopsora pachyrhizi = test: In vivo preventive test on Phakopsora test (soybeans); settings: evaluated 7 days after inoculation
Experimental: To produce a suitable preparation of active compound, 1 part by weight of active compound is mixed with the stated amounts of solvent and emulsifier, and the concentrate is diluted with water to the desired concentration. To test for preventive activity, young plants are sprayed with the preparation of active compound at the stated rate of application. After the spray coating has dried on, the plants are inoculated with an aqueous spore suspension of the causal agent of soybean rust (Phakopsora pachyrhizi) and stay for 24 h without light in an incubation cabinet at approximately 24° C. and a relative atmospheric humidity of 95%. The plants remain in the incubation cabinet at approximately 24° C. and a relative atmospheric humidity of approximately 80% and a day/night interval of 12h.
as §3

Puccinia triticina = test: In vivo preventive Puccinia triticina test (wheat); settings: evaluated 8 days after inoculation
Experimental: as §2, with “sprayed” for “dusted”, “a spore suspension” for “spores”, “Puccinia triticina. The plants remain for 48 hours in an incubation cabinet at approximately 20° C. and a relative atmospheric humidity of approximately 100%.” for “Blumeria graminis f.sp. hordei.”, “20°” for “18°”, “80%.” for “80% to promote the development of mildew pustules.”
(§4) The test is evaluated 8 days after the inoculation. 0% means an efficacy which corresponds to that of the untreated control, while an efficacy of 100% means that no disease is observed.

Leptosphaeria nodorum = test: In vivo preventive Leptosphaeria nodorum test (wheat); settings: evaluated 8 days after inoculation
Experimental: as §2, with “sprayed” for “dusted”, “a spore suspension” for “spores”, “Leptosphaeria nodorum. The plants remain for 48 hours in an incubation cabinet at approximately 20° C. and a relative atmospheric humidity of approximately 100%.” for “Blumeria graminis f.sp. hordei.”, “25°” for “18°”, “80%.” for “80% to promote the development of mildew pustules.”
as §4

Pyrenophora teres = test: In vivo preventive Pyrenophora teres test (barley); settings: evaluated 8 days after inoculation
Experimental: as §2, with “sprayed” for “dusted”, “a spore suspension” for “spores”, “Pyrenophora teres. The plants remain for 48 hours in an incubation cabinet at approximately 20° C. and a relative atmospheric humidity of approximately 100%.” for “Blumeria graminis f.sp. hordei.”, “20°” for “18°”, “80%.” for “80% to promote the development of mildew pustules.”
as §4

Septoria tritici = test: In vivo preventive Septoria tritici test (wheat); settings: evaluated 21 days after inoculation
Experimental: To produce a suitable preparation of active compound, 1 part by weight of active compound or active compound combination is mixed with the stated amounts of solvent and emulsifier, and the concentrate is diluted with water to the desired concentration. To test for preventive activity, young plants are sprayed with the preparation of active compound or active compound combination at the stated rate of application. After the spray coating has been dried, the plants are sprayed with a spore suspension of Septoria tritici. The plants remain for 48 hours in an incubation cabinet at approximately 20° C. and a relative atmospheric humidity of approximately 100% and afterwards for 60 hours at approximately 15° C. in a translucent incubation cabinet at a relative atmospheric humidity of approximately 100%. The plants are placed in the greenhouse at a temperature of approximately 15° C. and a relative atmospheric humidity of approximately 80%.
The test is evaluated 21 days after the inoculation. 0% means an efficacy which corresponds to that of the untreated control, while an efficacy of 100% means that no disease is observed.

Compound	Efficacy in % found (Venturia inaequalis; 0.5 ppm a.i.)	Efficacy in % found (Venturia inaequalis; 1 ppm a.i.) [%]	Efficacy in % found (Alternaria solani; 0.25 ppm a.i.)	Efficacy in % found (Alternaria solani; 0.5 ppm a.i.) [%]	Efficacy in % found (Alternaria solani; 1 ppm a.i.)	Efficacy in % found (Botrytis cinerea; 0.25 ppm a.i.) [%]	Efficacy in % found (Botrytis cinerea; 0.5 ppm a.i.) [%]	Efficacy in % found (Phakopsora pachyrhizi; 0.5 ppm a.i.) [%]	Efficacy in % found (Pyrenophora teres; 50 ppm a.i.) [%]	Efficacy in % found (Phakopsora pachyrhizi; 0.25 ppm a.i.)	Efficacy in % found (Phakopsora pachyrhizi; 1 ppm a.i.) [%]	Efficacy in % found (Pyrenophora teres; 25 ppm a.i.) [%]	Efficacy in % found (Botrytis cinerea; 1 ppm a.i.)	further results
CCC[C@@H]1CC(C)(C)c2cccc(NC(=O)c3cccnc3C(F)F)c21 [(I-6), 2-(difluoromethyl)-N-[(3R)-1,1-dimethyl-3-propyl-2,3-dihydro-1H-inden-4-yl]nicotinamide]	5%	10	15%	23	45%	0	0	92						Efficacy in % found (Venturia inaequalis; 0.25 ppm a.i.): 0%; Efficacy in % found ([1]; 50 ppm a.i.): 40%; Efficacy in % found (Puccinia triticina; 25 ppm a.i.): 90%
fluopyram [1.006, reference compound]									75					Efficacy in % found (Leptosphaeria nodorum; 12.5 ppm a.i.): 14%; Efficacy in % found (Leptosphaeria nodorum; 25 ppm a.i.): 14%; Efficacy in % found (Pyrenophora teres; 12.5 ppm a.i.): 33%; Efficacy in % found ([1]; 100 ppm a.i.): 71%; Efficacy in % found (Septoria tritici; 25 ppm a.i.): 17%; Efficacy in % found (Puccinia triticina; 12.5 ppm a.i.): 0%
CC1CC(C)(C)c2cccc(NC(=O)c3cn(C)nc3C(F)F)c21 (centres unmarked) [1.032, 3-(difluoromethyl)-1-methyl-N-(1,1,3-trimethyl-2,3-dihydro-1H-inden-4-yl)-1H-pyrazole-4-carboxamide, reference compound]	0%			0	15% and 8%	18	0	0		0%	0			
CCCC1CC(C)(C)c2cccc(NC(=O)c3cccnc3C(F)F)c21 (centres unmarked) [(I-5), 2-(difluoromethyl)-N-(1,1-dimethyl-3-propyl-2,3-dihydro-1H-inden-4-yl)nicotinamide]	0%	15	0%	8	15%			84	0	78%	85	0	0%	Efficacy in % found (Venturia inaequalis; 0.25 ppm a.i.): 0%; Efficacy in % found (Pyrenophora teres; 100 ppm a.i.): 50%; Efficacy in % found (Puccinia triticina; 25 ppm a.i.): 50%
CCC1CC(C)(C)c2cccc(NC(=O)c3cccnc3C(F)F)c21 (centres unmarked) [(I-3), 2-(difluoromethyl)-N-(3-ethyl-1,1-dimethyl-2,3-dihydro-1H-inden-4-yl)nicotinamide]	11%		15%	45	45%	0	4	71	38	24%		13	0%	Efficacy in % found (Pyrenophora teres; 100 ppm a.i.): 50%; Efficacy in % found ([1]; 50 ppm a.i.): 29%; Efficacy in % found ([1]; 100 ppm a.i.): 57%; Efficacy in % found (Septoria tritici; 25 ppm a.i.): 17%; Efficacy in % found (Septoria tritici; 50 ppm a.i.): 83%
CC[C@@H]1CC(C)(C)c2cccc(NC(=O)c3cccnc3C(F)F)c21 [(I-4), 2-(difluoromethyl)-N-[(3R)-3-ethyl-1,1-dimethyl-2,3-dihydro-1H-inden-4-yl]nicotinamide]	12%	21	23%	30	55%				33	35%	87	22		Efficacy in % found (Leptosphaeria nodorum; 25 ppm a.i.): 0%; Efficacy in % found (Pyrenophora teres; 12.5 ppm a.i.): 22%; Efficacy in % found ([1]; 25 ppm a.i.): 0%; Efficacy in % found (Puccinia triticina; 12.5 ppm a.i.): 80%
Cn1cc(C(=O)Nc2ccccc2-c2cc(F)c(F)c(F)c2)c(C(F)F)n1 [1.008, fluxapyroxad, reference compound]	8% and 10%		15% and 8%	45	55% and 78%			0		9% and 0%	0		8% and 0%	
